Assays:
[1] = test system: sarco/endoplasmic reticulum Ca^2+-ATPases (SERCAs); details: cited from earlier work; for inhibition of sarco/endoplasmic reticulum Ca^2+-ATPases (SERCAs): qualitative statement, no own test

Compound | melting point | inhibition of sarco/endoplasmic reticulum Ca^2+-ATPases (SERCAs) [1] | inhibition of Sarco/endoplasmic reticulum Ca^2+-ATPase compared with thapsigargin (1) ([1]; relative to 1 (thapsigargin))
CC1=C2[C@@H]3OC(=O)[C@@](C)(O[Si](C)(C)C)[C@@]3(O)[C@H](OCc3ccccc3)C[C@](C)(O)[C@H]2C[C@H]1O[Si](C)(C)C(C)(C)C | 176.1 to 178.5 °C | – | –
C/C=C(/C)C(=O)O[C@@H]1C[C@H]2C(=C1C)[C@@H]1OC(=O)[C@@](C)(O)[C@@]1(O)[C@@H](OC(=O)CCC)C[C@]2(C)OC(C)=O [nortrilobolide] | – | potent inhibitor | equipotent inhibition
thapsigargin | – | highly selective subnanomolar inhibitor | –
